Here are results for 7 molecules from article PMC8957246, “Synthesis and diverse biological activity profile of triethylammonium isatin-3-hydrazones” (ADMET & DMPK, 2022).

A word on the melting point: it is the temperature of the solid-liquid transition. Broadly, the MIC is the smallest concentration in the dilution series that meets the test's criterion for growth inhibition.

Structures can show the parent of a compound that is named as a salt. Where two headings read alike, the source gives them in different places. Marks after values point to notes of the source that are not given here.

The subject of series [1] is methicillin-resistant strains of S. aureus (MRSA-1). The experiment in a line: Antimicrobial activity, serial dilution (MIC/MBC), MRSA-1. As to conditions: Staphylococcus aureus. In kind it is cell-based. The protocol:
(§1) The antimicrobial activity of the test compounds was determined by the serial dilution technique in Muller Hinton Broth 2 and in Sabouradu broth for fungi. The cultures used for testing included Gram-positive bacteria: Staphylococcus aureus ATCC 6538P FDA 209P, Bacillus cereus ATCC 10702 NCTC 8035, Enterococcus faecalis ATCC 29212; Gram-negative bacteria: Escherichia coli ATCC 25922, Pseudomonas aeruginosa ATCC 9027, and fungi: Trichophyton mentagrophytes var. gypseum 1773, and Candida albicans ATCC 10231; methicillin-resistant strains of S. aureus (MRSA) was obtained from hospital patients with chronic tonsillitis in the Republican Clinical Hospital (Kazan, Russia). The bacterial load was 3.0 × 10^5 cfu/ml. The fungi load was 2.0 × 10^3 cfu/ml. The results were recorded every 24 h for 5-7 days. Cultures were incubated at 37 °C. The experiment was repeated three times. […] The minimum inhibitory concentration (MIC) was defined as the minimum concentration of a compound that inhibits the growth of the corresponding test microorganism. The growth of bacteria, as well as the absence of the growth due to the bacteriostatic action of compounds, were recorded.
(§2) Synthesized compounds were further evaluated for antimicrobial activity against test microorganisms: Staphylococcus aureus ATCC 209p (Sa), Bacillus cereus ATCC 8035 (Bc), Escherichia coli CDC F-50 (Ec), Enterococcus faecalis (Ef), Pseudomonas aeruginosa ATCC 9027, Aspergillus niger BKMF-1119, Trichophyton mentagrophytes var. gypseum 1773, and Candida albicans 855-653 including methicillin-resistant strains of S. aureus (MRSA 1 and MRSA 2). The minimum inhibitory (MIC) and minimum bactericidal (MBC) concentrations of ammonium salts were determined against these pathogens (Table 1). Due to the lack of activity of compounds 3a-g against Gram-negative bacterial strains and some fungi, the corresponding data are not shown.

In series [2] the test system is Candida albicans ATCC 10231. The experiment in a line: Antimicrobial activity, serial dilution (MIC/MBC), Ca. Format: cell-based. To be noted: ATCC10231. The protocol: as §1, §2
Series [3] relates to Bacillus cereus ATCC 10702 NCTC 8035. The experiment in a line: Antimicrobial activity, serial dilution (MIC/MBC), Bc. In kind it is cell-based. The method, then:
as §1, §2

For series [4], the system named is platelets (collagen-induced aggregation). The experiment in a line: Platelet aggregation (Born method), collagen-induced. In kind it is cell-based. To be noted: Homo sapiens, collagen 5 mg/mL, final concentration 2×10^–3 mol/L, median (25-75 percentiles), read-out: Platelets aggregation, % of control, Collagen. The protocol: (§3) The in vitro experiments were performed using the blood of healthy male donors aged 18-24 years (total 54 donors). The study was approved by the Ethics Committee of Federal State Budgetary Educational Institution of Higher Education at the Bashkir State Medical University of the Ministry of Health of Russian Federation (No.2 dated 17.10.2012). Informed consent was obtained from all participants before blood sampling. The blood was collected from the cubital vein using the system of vacuum blood collection BD Vacutainer® (Becton, Dickinson and Company, USA). A 3.8 % sodium citrate solution in a 9:1 ratio was used as a venous blood stabiliser. The study of the effect on platelet aggregation was performed using the Born method using the aggregometer «AT-02» (SPC Medtech, Russia). The assessment of antiplatelet activity of the studied compounds and reference preparations was started with the final concentration of 2×10^–3 mol/L. Adenosine diphosphate (ADP; 20 μg/mL) and collagen (5 mg/mL) manufactured by Tehnologia-Standart Company, Russia, were used as inducers of aggregation. The study on the anticoagulant activity was performed by standard recognised clotting tests using the optical two-channel automatic analyser of blood coagulation Solar CGL 2110 (CJSC SOLAR, Belarus). The following parameters were studied: activated partial thromboplastin time (APTT), prothrombin time (PT) and fibrinogen concentrations according to the Clauss method. The determination of anticoagulant activity of the studied compounds and reference preparation was performed in a concentration of 5×10^–4 g/mL using the reagents manufactured by Tehnologia-Standart Company (Barnaul, Russia). The results of the study were processed using the statistical package Statistica 10.0 (StatSoft Inc, USA). The Shapiro–Wilk’s test was used to check the normality of actual data distribution. The form of distribution of the data obtained differed from the normal one; therefore, non-parametric methods were used for further analysis. The data were presented as medians and 25 and 75 percentiles. Analysis of variance was conducted using Kruskal–Wallis test. A p value of 0.05 was considered statistically significant.

Series [5] relates to methicillin-resistant strains of S. aureus (MRSA-2). The experiment in a line: Antimicrobial activity, serial dilution (MIC/MBC), MRSA-2. Format: cell-based. As to conditions: Staphylococcus aureus. The protocol: as §1, §2
For series [6], the system named is Enterococcus faecalis ATCC 29212. The experiment in a line: Antimicrobial activity, serial dilution (MIC/MBC), Ef. Format: cell-based. As to conditions: ATCC29212. The method, then:
as §1, §2

The subject of series [7] is activated partial thromboplastin time (intrinsic coagulation pathway). The experiment in a line: Anticoagulant activity, clotting test APTT. To be noted: concentration 5×10^–4 g/mL; median (25-75 percentiles). Details: species or system human. The method, then:
as §3

In series [8] the test system is platelets (ADP-induced aggregation). The experiment in a line: Platelet aggregation (Born method), ADP-induced. Format: cell-based. To be noted: Homo sapiens, ADP 20 μg/mL, final concentration 2×10^–3 mol/L, median (25-75 percentiles), read-out: Platelets aggregation, % of control, ADP. The protocol: as §3
Another series relates to human erythrocytes. The experiment in a line: Hemolytic activity. In kind it is cell-based. To be noted: compared within series 3a-g and reference drug. The protocol:
Hemolytic activity of test compounds was estimated by comparing the optical density of a solution containing the test compound with that of blood at 100 % hemolysis. The experiments were carried out as described earlier.
An important step in the determination of the biological activity of new chemical compounds is the assessment of their cytotoxic action in relation to mammalian cells. The ability of the investigated compound to cause the destruction of human erythrocytes illustrates its toxic effect on the internal environment of the body. The hemolysis assay is a simple screening test, the results of which can help in the study of cytotoxicity in more complex models. Such experimental models can be the cell lines obtained from various organs and tissues of a person and allowing to adequately assessing the effect of new potential drugs on cell metabolism.

Series [9] concerns Staphylococcus aureus ATCC 6538P FDA 209P. The experiment in a line: Antimicrobial activity, serial dilution (MIC/MBC), Sa. Format: cell-based. To be noted: Staphylococcus aureus. The method, then: as §1, §2
Series [10] deals with Chang liver cell line (Human liver cells). To be noted: reference drug compared with 3a-g.

Turning to `CC[N+](CC)(CC)CC(=O)N/N=C1\C(=O)N(Cc2cc(C(C)(C)C)c(O)c(C(C)(C)C)c2)c2c(Br)cc(Cl)cc21` (as salt: bromide) [Compound 3g, 2-(2-(1-(3,5-Di-tert-butyl-4-hydroxybenzyl)-5-chloro-7-bromo-2-oxoindolin-3-ylidene)hydrazinyl)-N,N,N-triethyl-2-oxoethanammonium bromide], the melting point was 177 °C.
`CCc1cccc2c1N(Cc1cc(C(C)(C)C)c(O)c(C(C)(C)C)c1)C(=O)/C2=N\NC(=O)C[N+](CC)(CC)CC` (as salt: bromide) [Compound 3c, 2-(2-(1-(3,5-Di-tert-butyl-4-hydroxybenzyl)-7-ethyl-2-oxoindolin-3-ylidene)hydrazinyl)-N,N,N-triethyl-2-oxoethanammonium bromide] showed a melting point of 163 °C.
On the same count and under the same terms, for `CC[N+](CC)(CC)CC(=O)N/N=C1\C(=O)N(Cc2cc(C(C)(C)C)c(O)c(C(C)(C)C)c2)c2cccc(Br)c21` (as salt: bromide) [Compound 3e, 2-(2-(1-(3,5-Di-tert-butyl-4-hydroxybenzyl)-4-bromo-2-oxoindolin-3-ylidene)hydrazinyl)-N,N,N-triethyl-2-oxoethanammonium bromide] the value was 194 °C.
As for `CC[N+](CC)(CC)CC(=O)N/N=C1\C(=O)N(Cc2cc(C(C)(C)C)c(O)c(C(C)(C)C)c2)c2c(C)cccc21` [Compound 3b, 2-(2-(1-(3,5-Di-tert-butyl-4-hydroxybenzyl)-7-methyl-2-oxoindolin-3-ylidene)hydrazinyl)-N,N,N-triethyl-2-oxoethanammonium bromide], the MBC is 203 µM in series [1]; greater than 500 µM in series [2]; 203 µM in [3] (Bacillus cereus); 50.8 µM in series [5]; greater than 500 µM in series [6]; 25.4 µM in series [9] (read-out: MBC (converted)). The minimal inhibitory concentration (MIC) was 50.8 ± 4.1 µM in series [1]; greater than 500 µM in series [2]; 25.4 ± 1.9 µM in [3]; roughly 25 µM in series [3] (Bacillus cereus, read-out: MIC); 25.4 ± 2.3 µM in [5]; greater than 500 µM in series [6]. This molecule also returned a minimum inhibitory concentration (MIC) in series [9] of 3.2 ± 0.2 µM. Moreover, the figures for the inhibition at 2000 µM in [4] and in series [8] were 10.3% and 9.7%, respectively. In series [7], the “APTT, % of control” value was “+7.3 (6.5-9.6) ^*, ^† % of control”. Besides, the “toxicity to red blood cells (in words)” value with human erythrocytes is on record as “least toxic”.
gramicidin S [reference compound]: in the series on human erythrocytes, the “toxicity to red blood cells (in words)” value was “much more toxic”.
For `CC[N+](CC)(CC)CC(=O)N/N=C1\C(=O)N(Cc2cc(C(C)(C)C)c(O)c(C(C)(C)C)c2)c2c(C)cccc21` (as salt: bromide) [Compound 3b, 2-(2-(1-(3,5-Di-tert-butyl-4-hydroxybenzyl)-7-methyl-2-oxoindolin-3-ylidene)hydrazinyl)-N,N,N-triethyl-2-oxoethanammonium bromide], the melting point was 154 °C.
With `COc1cccc2c1C(=O)c1c(O)c3c(c(O)c1C2=O)C[C@@](O)(C(=O)CO)C[C@@H]3O[C@H]1C[C@H](N)[C@H](O)[C@H](C)O1` [doxorubicin], the “toxicity to liver cells (in words)” value in [10] is on record as “much more toxic”.
